Consider 20 compounds from patent US9546157B2, “Asymmetric piperidinyl-substituted ureas as medicines” (Helsinn Healthcare SA, priority 2014, dated 2017).

Series [1] in a line: Metabolic Stability (H = Human). Format: in vitro ADME.
The subject of the next series is C57BL/6J mice. As to the kind of experiment: Food intake test in mouse (GHSR1a antagonists). The series is classed as in vivo. The note with it: for inhibition in vivo at 10 mg/kg: ip, 1 h, i.p. 10 mg/kg. As for the experimental part:
Male C57BL/6J mice, 18-22 g body weight, were fasted overnight (16 h before compound administration) and placed in a regular light dark cycle (6:00-18:00 light/18:00-6:00 dark). After 1 wk acclimation, animals were sorted into two groups (n=6 each, 2 per cage) based on body weight. Animals in group one were be treated with vehicle and animals in group 2 were treated with the test agent (n=6 for each group). The cumulative food intake was evaluated at 1, 2, 4, 8 and 24 hrs after drug or vehicle treatment. Food intake was measured by subtracting uneaten food from the initial premeasured food.

Series [2] is described as follows: Metabolic Stability (M = Mouse). The series is classed as in vitro ADME.
Series [3] addresses T1, GHSR1a (Homo sapiens, UniProt Q92847).
T1 construct: expressed in transfected cells; host or cells: HEK293
Put plainly: Calcium FLIPR assay, GHSR-1a agonism. Format: cell-based. Further details: Emax: unit not given here. Particulars: HEK293/GHSR1a cells. In short, it runs like this:
(§1)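 Antagonist potency reflects lowering of the 10 nM ghrelin calcium signal in HEK293/GHSR1a cells, with compound and ghrelin given at t=20 sec. Agonism was scored from the 2-minute fluorescence response to compound alone.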

In series [4] the target is T1, GHSR1a. As to the kind of experiment: Calcium FLIPR assay, GHSR-1a antagonism (reduction of ghrelin response). Format: cell-based. Particulars: HEK293/GHSR1a cells, ghrelin 10 nM. In short, it runs like this: as §1
Setting [5] is: PO 10 mg/kg + ANA (ANAM) 30 mg/kg mice.

By inhibition in vivo is commonly meant how much of the control response was suppressed. The term EC50 denotes the concentration at which the effect is half-maximal. As a reminder, the IC50 is the concentration needed to halve the response being measured.

T1 sequence (Q92847 whole entry): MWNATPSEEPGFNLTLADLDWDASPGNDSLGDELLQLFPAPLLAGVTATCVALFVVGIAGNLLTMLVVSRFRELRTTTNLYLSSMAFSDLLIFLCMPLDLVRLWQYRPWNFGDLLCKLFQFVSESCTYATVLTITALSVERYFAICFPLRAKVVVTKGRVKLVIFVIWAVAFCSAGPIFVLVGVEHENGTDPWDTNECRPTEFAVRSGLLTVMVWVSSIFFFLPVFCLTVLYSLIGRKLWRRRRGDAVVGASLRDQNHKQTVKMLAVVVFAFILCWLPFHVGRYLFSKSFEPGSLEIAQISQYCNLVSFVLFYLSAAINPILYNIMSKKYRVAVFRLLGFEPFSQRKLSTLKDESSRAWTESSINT

`CC(NC(=O)N(C)C1CCN(C)CC1)c1ccc(-c2cccs2)c(Cl)c1Cl` (single isomer, unassigned) [Compound H0563, 3-(1-(2,3-dichloro-4-(thiophen-2-yl)phenyl)ethyl)-1-methyl-1-(1-methylpiperidin-4-yl)urea]: the “Metabolic Stability H” value in series [1] was “Medium H Medium M”. At 10 mg/kg the inhibition in vivo in the series with C57BL/6J mice (Mus musculus) was 65%. For the same compound, the “Metabolic Stability M” value in series [2] is “Medium H Medium M”. At GHSR1a [3], the EC50 stood at 3 nM and the Emax was 2100.

As for `C#Cc1ccc(C(C)NC(=O)N(C)C2CCN(C)CC2)c(Cl)c1Cl` (single isomer, unassigned) [Compound H0677, 3-(1-(2,3-dichloro-4-ethynylphenyl)ethyl)-1-methyl-1-(1-methylpiperidin-4-yl)urea], in series [1], the “Metabolic Stability H” value is “High”. Besides, in the series on C57BL/6J mice (PO, dose not given), the “Mouse Food Intake, result in words” value was “NSE”. The “Metabolic Stability M” value in series [2] was “Medium”. For the same compound, the IC50 on GHSR1a [4] was 5 nM. Also, the EC50 at GHSR1a [3] was more than 30000 nM.

In the case of `C#Cc1ccc(C(C)NC(=O)N(C)C2CCN(C)CC2)c(Cl)c1Cl` (single isomer, unassigned) [Compound H0678, 3-(1-(2,3-dichloro-4-ethynylphenyl)ethyl)-1-methyl-1-(1-methylpiperidin-4-yl)urea], the “Metabolic Stability H” value in series [1] is given as “Medium H Medium M”. Besides, the inhibition in vivo at 10 mg/kg in the series on C57BL/6J mice (Mus musculus) worked out at 78%. In addition, the “Mouse Food Intake, result in words” value in the series with C57BL/6J mice (PO, dose not given) is on record as “no effect”. For the same compound, the “Metabolic Stability M” value in series [2] is “Medium H Medium M”. For the same compound, at GHSR1a [4], the IC50 was found to be 55 nM. Moreover, the EC50 on GHSR1a [3] was more than 30000 nM.

Consider `CN1CCC(N(O)C(=O)NC(CC2CC2)c2ccc(-c3cnccn3)c(Cl)c2Cl)CC1` (single isomer, unassigned) [Compound H0782, 3-(2-cyclopropyl-1-(2,3-dichloro-4-(pyrazin-2-yl)phenyl)ethyl)-1-hydroxy-1-(1-methylpiperidin-4-yl)urea], for which 10 mg/kg produced 93% inhibition in vivo in the series with C57BL/6J mice (Mus musculus). Also, the 50% inhibitory concentration (IC50) on GHSR1a [4] is 5 nM. In addition, at GHSR1a [3], the EC50 came to 6 nM and the Emax is given as 1923.

`CC(NC(=O)N(C)C1CCN(C)CC1)c1ccc(C#CC2CC2)c(Cl)c1Cl` (single isomer, unassigned) [Compound H0818, 3-(1-(2,3-dichloro-4-(cyclopropylethynyl)phenyl)ethyl)-1-methyl-1-(1-methylpiperidin-4-yl)urea] had an inhibition in vivo at 30 mg/kg in the series on C57BL/6J mice (Mus musculus, po, 4 h, 30 mg/kg PO fasted mice) of 22%. Besides, at GHSR1a [4], the IC50 was determined as 1.7 nM. Further, on GHSR1a [3], the EC50 came to 3.5 nM and the Emax was 1915.

Consider `CC(NC(=O)N(C)C1CCN(C)CC1)c1ccc(C#CC2CC2)c(Cl)c1Cl` (single isomer, unassigned) [Compound H0819, 3-(1-(2,3-dichloro-4-(cyclopropylethynyl)phenyl)ethyl)-1-methyl-1-(1-methylpiperidin-4-yl)urea], for which, in the series with C57BL/6J mice (30 mg/kg PO fasted mice), the “Mouse Food Intake, result in words” value is 30 mg/kg PO fasted mice NSE. Besides, the concentration for half-maximal inhibition (IC50) on GHSR1a [4] amounted to 65 nM. Also, on GHSR1a [3], the EC50 amounted to 140 nM and the Emax was found to be 1419.

As for `CN1CCC(N(C)C(=O)NC(CC2CC2)c2ccc(-c3ccc(C(N)=O)s3)c(Cl)c2Cl)CC1` (stereo not shown) [Compound H0728, 5-(2,3-dichloro-4-(2-cyclopropyl-1-(3-methyl-3-(1-methylpiperidin-4-yl)ureido)ethyl)phenyl)thiophene-2-carboxamide], in series [1], the “Metabolic Stability H” value is “Medium H Medium M”. Further, the “Metabolic Stability M” value in series [2] is listed as “Medium H Medium M”. In addition, the IC50 on GHSR1a [4] is 5 nM. For the same compound, the 50% effective concentration (EC50) on GHSR1a [3] is more than 30000 nM.

Consider `C[C@@H](NC(=O)N(C)C1CCN(C)CC1)c1ccc(-c2cnccn2)c(Cl)c1Cl` [Compound H0817, (R)-3-(1-(2,3-dicholoro-4-(pyrazin-2-yl)phenyl)ethyl)-1-methyl-1-(1-methylpiperidin-4-yl)urea], for which the “Mouse Food Intake, result in words” value in the series with C57BL/6J mice (30 mg/kg PO fasted mice) came to 30 mg/kg PO fasted mice NSE. In addition, the half-inhibitory concentration (IC50) on GHSR1a [4] stood at 94 nM. Besides, on GHSR1a [3], the concentration for a half-maximal effect (EC50) is more than 30000 nM.

For `C[C@H](NC(=O)N(C)C1CCN(C)C1)c1ccc(C#CC2CC2)c(Cl)c1Cl` (stereo partly drawn) [Compound H0838, 3-((S)-1-(2,3-dichloro-4-(cyclopropylethynyl)phenyl)ethyl)-1-methyl-1-(1-methylpyrrolidin-3-yl)urea], the “Mouse Food Intake increase, activity up to” value in the series on C57BL/6J mice (30 mg/kg PO mice) is on record as not above 8 h. In the series on C57BL/6J mice (2 h, 30 mg/kg PO mice), the “Mouse Food Intake % increase” value amounted to 205%. Also, the IC50 at GHSR1a [4] came out at 4 nM. On GHSR1a [3], the half-maximal effective concentration (EC50) was determined as 21 nM and the Emax came out at 1340.

Turning to `CC(NC(=O)N(C)C1CCN(C)CC1)c1ccc(-c2nccnc2F)c(Cl)c1Cl` (stereo not shown) [Compound H0840], the “Mouse Food Intake, result in words” value in the series with C57BL/6J mice (setting [5]) is recorded as “PO 10 mg/kg + ANA 30 mg/kg mice: NSE”. In addition, the IC50 on GHSR1a [4] was 47 nM. Further, the EC50 at GHSR1a [3] is more than 30000 nM.

Consider `CC(NC(=O)N(C)C1CCN(C)CC1)c1ccc(-c2csc(C3CC3)n2)c(Cl)c1Cl` (stereo not shown) [Compound H0841, 3-(1-(2,3-dichloro-4-(2-cyclopropylthiazol-4-yl)phenyl)ethyl)-1-methyl-1-(1-methylpiperidin-4-yl)urea], for which the “Mouse Food Intake, result in words” value with C57BL/6J mice (setting [5]) is “PO 10 mg/kg + ANAM 30 mg/kg mice: NSE”. Further, the IC50 at GHSR1a [4] is 118 nM. Besides, the EC50 at GHSR1a [3] was more than 30000 nM.

Take `CCC(NC(=O)N(C)C1CCN(C)C1)c1ccc(-c2cnccn2)c(Cl)c1Cl` (stereo not shown) [Compound H0857, 3-(1-(2,3-dichloro-4-(pyrazin-2-yl)phenyl)propyl)-1-methyl-1-(1-methylpyrrolidin-3-yl)urea]: the “Metabolic Stability H” value in series [1] is recorded as “Medium”. For the same compound, in series [2], the “Metabolic Stability M” value is “Low”. The IC50 on GHSR1a [4] is 10 nM. At GHSR1a [3], the EC50 was more than 30000 nM.

`CCC(NC(=O)N(C)[C@@H]1CCN(C)CC1(C)C)c1ccc(-c2cnccn2)c(Cl)c1Cl` (stereo partly drawn) [Compound H0858, 3-(1-(2,3-dichloro-4-(pyrazin-2-yl)phenyl)propyl)-1-methyl-1-((R)-1,3,3-trimethylpiperidin-4-yl)urea]: the “Metabolic Stability H” value in series [1] is reported as “Medium H Medium M”. The “Metabolic Stability M” value in series [2] was “Medium H Medium M”. Moreover, on GHSR1a [4], the IC50 was 8 nM. Also, the EC50 at GHSR1a [3] was more than 30000 nM.

Consider `CCC(NC(=O)N(C)C1CCN(C)CC1)c1ccc(-c2cncc(F)n2)c(Cl)c1Cl` (stereo not shown) [Compound H0863, 3-(1-(2,3-dichloro-4-(6-fluoropyrazin-2-yl)phenyl)propyl)-1-methyl-1-(1-methylpiperidin-4-yl)urea], for which the “Metabolic Stability H” value in series [1] is “Medium”. In series [2], the “Metabolic Stability M” value was “High”. The IC50 on GHSR1a [4] was determined as 3 nM. The EC50 on GHSR1a [3] was more than 30000 nM.

Take `C[C@H](NC(=O)N(C)C1CCN(C)C1)c1ccc(-c2cncc(F)n2)c(Cl)c1Cl` (stereo partly drawn) [Compound H0872, 3-((S)-1-(2,3-dichloro-4-(6-fluoropyrazin-2-yl)phenyl)ethyl)-1-methyl-1-(1-methylpyrrolidin-3-yl)urea]: the “Metabolic Stability H” value in series [1] is “High”. In addition, in series [2], the “Metabolic Stability M” value is on record as “medium”. In addition, the IC50 at GHSR1a [4] is 6 nM. Further, the EC50 on GHSR1a [3] was more than 30000 nM.

As to `CCN(C(=O)N[C@@H](C)c1ccc(-c2cnccn2)c(Cl)c1Cl)C1CCN(C)CC1` [Compound H0889, (S)-3-(1-(2,3-dichloro-4-(pyrazin-2-yl)phenyl)ethyl)-1-ethyl-1-(1-methylpiperidin-4-yl)urea], in series [1], the “Metabolic Stability H” value is “High H High M”. In addition, the “Metabolic Stability M” value in series [2] was “High H High M”. Also, the IC50 at GHSR1a [4] stood at 6 nM. Besides, the concentration giving a half-maximal response (EC50) at GHSR1a [3] was more than 30000 nM.

As to `C[C@H](NC(=O)N(C)[C@@H]1CCN(C)CC1(C)C)c1ccc(-c2cnccn2)c(Cl)c1Cl` [Compound H0890, 3-((S)-1-(2,3-dichloro-4-(pyrazin-2-yl)phenyl)ethyl)-1-methyl-1-((R)-1,3,3-trimethylpiperidin-4-yl)urea], in series [1], the “Metabolic Stability H” value is given as “High H High M”. Moreover, in series [2], the “Metabolic Stability M” value is recorded as “High H High M”. Moreover, the IC50 on GHSR1a [4] came to 1.6 nM. For the same compound, at GHSR1a [3], the EC50 was more than 30000 nM.

`CN1CCC(N(C)C(=O)N[C@@H](c2ccc(-c3cnccn3)c(Cl)c2Cl)C(F)(F)F)CC1` [Compound H0899, (S)-3-(1-(2,3-dichloro-4-(pyrazin-2-yl)phenyl)-2,2,2-trifluoroethyl)-1-methyl-1-(1-methylpiperidin-4-yl)urea]: in series [1], the “Metabolic Stability H” value is “Medium”. Also, the “Metabolic Stability M” value in series [2] was “High”. The IC50 on GHSR1a [4] is 1600 nM. Besides, the EC50 on GHSR1a [3] was more than 30000 nM.

On to `CN1CCC(N(C)C(=O)NC(c2ccc(-c3cncc(F)n3)c(Cl)c2Cl)C(F)(F)F)CC1` (stereo not shown) [Compound H0908, 3-(1-(2,3-dichloro-4-(6-fluoropyrazin-2-yl)phenyl)-2,2,2-trifluoroethyl)-1-methyl-1-(1-methylpiperidin-4-yl)urea], for which, in series [1], the “Metabolic Stability H” value was “Medium”. Moreover, the “Metabolic Stability M” value in series [2] was “High”. On GHSR1a [4], the concentration for half-maximal inhibition (IC50) was found to be 8 nM. The concentration giving a half-maximal response (EC50) on GHSR1a [3] is more than 30000 nM.

For `CCN(C(=O)NC(c1ccc(-c2cnccn2)c(Cl)c1Cl)C(F)(F)F)C1CCN(C)CC1` (stereo not shown) [Compound H0909, 3-(1-(2,3-dichloro-4-(pyrazin-2-yl)phenyl)-2,2,2-trifluoroethyl)-1-ethyl-1-(1-methylpiperidin-4-yl)urea], in series [1], the “Metabolic Stability H” value was “Medium”. Also, in series [2], the “Metabolic Stability M” value is “High”. Also, the IC50 at GHSR1a [4] was found to be 12 nM. For the same compound, the EC50 on GHSR1a [3] is more than 30000 nM.
